Measurements published in patent US20230052740A1, “MODULATORS OF CIRCADIAN RHYTHMS AND USES THEREOF” (The Regents of the University of California, priority 2019, published 2023).

Biological target: T1, 5HT2c (Homo sapiens, UniProt P28335)
T1 construct: Tango fusion elements (printed only as 'PRESTO-Tango receptor DNAs'); expressed in transfected cells; host or cells: HTLA cells
T1 sequence (P28335 33-458): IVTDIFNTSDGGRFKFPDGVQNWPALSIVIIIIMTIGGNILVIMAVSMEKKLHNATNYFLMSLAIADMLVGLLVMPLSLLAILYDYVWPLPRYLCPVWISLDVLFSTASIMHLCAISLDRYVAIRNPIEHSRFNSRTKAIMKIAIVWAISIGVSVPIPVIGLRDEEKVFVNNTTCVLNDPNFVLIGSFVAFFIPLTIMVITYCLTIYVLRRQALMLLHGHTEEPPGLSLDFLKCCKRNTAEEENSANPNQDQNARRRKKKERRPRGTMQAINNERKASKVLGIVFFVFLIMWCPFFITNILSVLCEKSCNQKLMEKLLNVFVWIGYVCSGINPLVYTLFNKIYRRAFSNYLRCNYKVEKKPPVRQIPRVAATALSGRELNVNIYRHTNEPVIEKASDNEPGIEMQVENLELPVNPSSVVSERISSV
Assay: PRESTO-Tango GPCR-ome counter-screen, agonist mode
Assay type: cell-based
Settings: arrestin recruitment Tango, in words
Description: Screening of compounds in the PRESTO-Tango GPCR-ome was accomplished as previously described (Kroeze, supra). with several modifications. First, HTLA cells were plated in DMEM with 10% FBS and 10 U/mL penicillin-streptomycin. Next, the cells were transfected using an in-plate PEI method (Longo, P. A. et al., Methods Enzymol 529, 227-240, 2013). PRESTO-Tango receptor DNAs were resuspended in OptiMEM and hybridized with PEI prior to dilution and distribution to 384-well plates and subsequent addition to cells. After overnight incubation, drugs were added to cells without replacement of the medium. The remaining steps of the PRESTO-Tango protocol were followed as previously described.

Compound: COc1ccc(Br)c(CNc2cccnc2)c1 [ZINC128734226]
- off-target agonist activity on 5HT2c: did have some activity on 5HT2c
